Test results published in paper PMC7332124, “Design, One Pot Synthesis and Molecular Docking Studies of Substituted-1H-Pyrido[2,1-b] Quinazolines as Apoptosis-Inducing Anticancer Agents” (Asian Pacific Journal of Cancer Prevention : APJCP, 2020).
Where two headings read alike, the source gives them in different places.

Legend:
A549 [1] = experiment: MTT cytotoxicity assay; type: cell-based, human; conditions: A549 adenocarcinoma (lung), MTT, 72 h, read-out: In vitro Inhibitory Concentration (IC50)
Procedure: (§1) Various cancer cells were used to screen anticancer activity of newly synthesized compounds. Lung (A549 and NCI-H460), colon (HCT-15 and HT-29), prostate (DU-145) cancer cells maintained in RPMI-1640 media while normal lung fibroblasts cell line (HFL-1) were maintained in F-12 k medium supplemented with 10% fetal bovine serum (FBS) with 1% antibiotic-antimycotic solution (Sigma). Cells were maintained in 5% CO2 with 98% relative humidity at 37 °C in incubator. When 80-90% of confluency is reached, they were sub-cultured using 0.25% trypsin/1 mM EDTA solution for further passage. The compounds in this series were dissolved in DMSO (1 %) to prepare the stock solution of 10 mM. Further dilutions were made accordingly with respective media to obtain the required concentrations.
(§2) MTT assay measures the reduction of MTT (3-(4,5-dimethylthiazol- 2-yl)-2,5-diphenyl tetrazolium bromide) by mitochondrial succinate dehydrogenase enzyme to insoluble formazan crystals. Since reduction of MTT occurs only in metabolically active cells, the level of activity is the measure of the viability of the cells.(Pordeli et al., 2017). Briefly, cells were plated in 96-well plates at a density of 3,000 to 6,000 cells per well in 100 µl of complete medium and allowed to grow overnight. Then the cells were treated with different concentrations of the synthesized compounds and incubated for 72 h. After the treatment, 100 µl of MTT (0.5 mg/ml) was added and incubated at 37 °C for 4 h. Then MTT reagent was aspirated and formazan crystals formed were dissolved by the addition of 200 µL of DMSO for 20 min at 37 °C. The formazan product quantity was measured by using a spectrophotometric microtiter plate reader (Spectra Max, M4 Molecular devices, USA) at 570 nm wavelength(Nekkanti et al., 2017).

DU-145 [2] = experiment: MTT cytotoxicity assay; type: cell-based, human; conditions: DU-145 prostate cancer, 72 h, read-out: In vitro Inhibitory Concentration (IC50)
Procedure: as §1, §2

HCT-15 [3] = experiment: MTT cytotoxicity assay; type: cell-based, human; conditions: HCT-15 colon cancer, 72 h, read-out: In vitro Inhibitory Concentration (IC50)
Procedure: as §1, §2

[4] = tested on: HFL-1 normal lung fibroblasts; experiment: MTT cytotoxicity assay; type: cell-based, human; conditions: read-out: In vitro Inhibitory Concentration (IC50)
Procedure: as §1, §2

HT-29 [5] = experiment: MTT cytotoxicity assay; type: cell-based, human; conditions: HT-29 colorectal cancer, 72 h, read-out: In vitro Inhibitory Concentration (IC50)
Procedure: as §1, §2

NCI-H460 [6] = experiment: MTT cytotoxicity assay; type: cell-based, human; conditions: NCI-H460 lung carcinoma, 72 h, read-out: In vitro Inhibitory Concentration (IC50)
Procedure: as §1, §2

A549 [7] = experiment: Cell growth inhibition assay (MTT, day 0 subtracted); type: cell-based, human; conditions: 72 h, read-out: In vitro Growth Inhibitory Concentration (GI50)
Procedure: as §1
(§3) Briefly, the cells were seeded on to a 96-well plate in 100 µl of medium. Following 24 h MTT reagent was added in few wells and day 0 absorbance was analyzed, and then cells were treated with compounds and incubated for an additional 72 h. After the treatment, 100 µl of MTT (0.5 mg/ml) was added and incubated at 37 °C for 4 h. Then MTT reagent was suctioned, the insoluble formazan crystals were dissolved in DMSO and formazan product formed is measured at 570 nm wavelength. The day 0 absorbance was subtracted from the 72 h incubated plates and data were plotted as a percentage of untreated control (Dai et al., 2011).

DU-145 [8] = experiment: as above; type: cell-based, human; conditions: 72 h, read-out: In vitro Growth Inhibitory Concentration (GI50)
Procedure: as §1, §3

HCT-15 [9] = experiment: as above; type: cell-based, human; conditions: 72 h, read-out: In vitro Growth Inhibitory Concentration (GI50)
Procedure: as §1, §3

[10] = tested on: HFL-1 normal lung fibroblasts; experiment: as above; type: cell-based, human; conditions: read-out: In vitro Growth Inhibitory Concentration (GI50)
Procedure: as §1, §3

HT-29 [11] = experiment: as above; type: cell-based, human; conditions: 72 h, read-out: In vitro Growth Inhibitory Concentration (GI50)
Procedure: as §1, §3

NCI-H460 [12] = experiment: as above; type: cell-based, human; conditions: 72 h, read-out: In vitro Growth Inhibitory Concentration (GI50)
Procedure: as §1, §3

Row | Compound | IC50 (A549 [1]) [µM] | IC50 (DU-145 [2]) [µM] | IC50 (HCT-15 [3]) [µM] | IC50 ([4]; 72 h) [µM] | IC50 (HT-29 [5]) [µM] | IC50 (NCI-H460 [6]) [µM] | GI50 (A549 [7]) [µM] | IC50 (A549 [1]; Homo sapiens) [µM] | IC50 (DU-145 [2]; Homo sapiens) [µM] | IC50 (HCT-15 [3]; Homo sapiens) [µM] | IC50 ([4]; Homo sapiens, HFL1, 72 h) [µM] | IC50 (HT-29 [5]; Homo sapiens) [µM] | IC50 (NCI-H460 [6]; Homo sapiens) [µM] | GI50 (A549 [7]; Homo sapiens) [µM] | GI50 (DU-145 [8]; Homo sapiens) [µM] | GI50 (HCT-15 [9]; Homo sapiens) [µM] | GI50 ([10]; Homo sapiens, HFL1, 72 h) [µM] | GI50 (HT-29 [11]; Homo sapiens) [µM] | GI50 (NCI-H460 [12]; Homo sapiens) [µM] | melting point [°C] | also measured
1 | 11-(4-trimethoxyphenyl)-2, 3, 4, 11-tetrahydro-1H-pyrido[2,1-b] quinazoline [Compound 4h] | > 30 | > 30 | > 30 | > 30 | > 30 | > 30 | > 30 | – | – | – | – | – | – | – | – | – | – | – | – | – | GI50 (DU-145 [8]): > 30 µM; GI50 (HCT-15 [9]): > 30 µM; GI50 ([10]; 72 h): > 30 µM; GI50 (HT-29 [11]): > 30 µM; GI50 (NCI-H460 [12]): > 30 µM
2 | C1=CC2=NC3=C(CCCC3)C(c3ccccc3)N2C=C1 (stereo not drawn) [Compound 4a, 11-Phenyl-2,3,4, 11-tetrahydro-1H-pyrido [2,1-b] quinazoline] | – | – | – | – | – | – | – | > 30 | > 30 | > 30 | > 30 | > 30 | > 30 | > 30 | > 30 | > 30 | > 30 | > 30 | > 30 | 154 to 156 | –
3 | Clc1ccc(C2C3=C(CCCC3)N=C3C=CC=CN32)cc1 (stereo not drawn) [Compound 4b, 11-(4-Chlorophenyl)-2,3,4, 11-tetrahydro-IH-pyrido [2,1-b] quinazoline] | > 30 | > 30 | > 30 | > 30 | > 30 | > 30 | > 30 | – | – | – | – | – | – | – | – | – | – | – | – | – | GI50 (DU-145 [8]): > 30 µM; GI50 (HCT-15 [9]): > 30 µM; GI50 ([10]; 72 h): > 30 µM; GI50 (HT-29 [11]): > 30 µM; GI50 (NCI-H460 [12]): > 30 µM
4 | O=[N+]([O-])c1ccc(C2C3=C(CCCC3)N=C3C=CC=CN32)cc1 (stereo not drawn) [Compound 4c, 11-(4-Nitrophenyl)-2,3,4, 11-tetrahydro-1H-pyrido[2,1-b]quinazoline] | – | – | – | – | – | – | – | > 30 | > 30 | > 30 | > 30 | > 30 | > 30 | > 30 | > 30 | > 30 | > 30 | > 30 | > 30 | 150 to 151 | –
5 | COc1ccc(C2C3=C(CCCC3)N=C3C=CC=CN32)cc1 (stereo not drawn) [Compound 4d, 11-(4-Methoxyphenyl)-2,3,4, 11-tetrahydro-1H-pyrido[2,1-b]quinazoline] | – | – | – | – | – | – | – | > 30 | > 30 | > 30 | > 30 | > 30 | > 30 | > 30 | > 30 | > 30 | > 30 | > 30 | > 30 | 88 to 89 | –
6 | Cc1ccc(C2C3=C(CCCC3)N=C3C=CC=CN32)cc1 (stereo not drawn) [Compound 4e] | 43.1 ± 2.43 | 23.2 ± 0.25 | 40.9 ± 0.55 | 85 ± 3.8 | 39.5 ± 1.4 | 43.2 ± 2.58 | 29.5 ± 0.79 | – | – | – | – | – | – | – | – | – | – | – | – | – | GI50 (DU-145 [8]): 17.7 ± 0.13 µM; GI50 (HCT-15 [9]): 23.44 ± 0.2 µM; GI50 ([10]; 72 h): 68.6 ± 3.2 µM; GI50 (HT-29 [11]): 15.8 ± 0.97 µM; GI50 (NCI-H460 [12]): 20.8 ± 1.82 µM
7 | ClC1=CN2C(=NC3=C(CCCC3)C2c2ccc(Cl)cc2)C=C1 (stereo not drawn) [Compound 4f, 8-Chloro-11-(4-chlorophenyl)-2,3,4, 11-tetrahydro-1H-pyrido [2,1-b] quinazoline] | – | – | – | – | – | – | – | 12.8 ± 1.5 | 16.08 ± 0.14 | 19.3 ± 1.16 | 15.2 ± 0.3 | 15.4 ± 0.11 | 12.6 ± 0.35 | 8.64 ± 0.4 | 11.3 ± 0.34 | 12.9 ± 0.73 | 11.6 ± 0.17 | 11.43 ± 0.06 | 9.62 ± 0.41 | 131 to 132 | –
8 | Fc1ccc(C2C3=C(CCCC3)N=C3C=CC(Cl)=CN32)cc1 (stereo not drawn) [Compound 4g, 8-chloro-11-(4-fluorophenyl)-2,3,4,11-tetrahydro-1H-pyrido[2,1-b]quinazoline] | – | – | – | – | – | – | – | 25.5 ± 3.98 | 32.9 ± 3.77 | 28.6 ± 1.96 | 63.1 ± 1.79 | 41.3 ± 1.43 | 41.5 ± 1.27 | 9.23 ± 0.93 | 7.37 ± 2.5 | 10 ± 0.97 | 41.7 ± 0.98 | 20.8 ± 3.74 | 17.5 ± 2.05 | 88 to 93 | –
9 | C1=CC2=NC3=C(CCCC3)C(c3c[nH]c4ccccc34)N2C=C1 (stereo not drawn) [Compound 4j, 11-(1H-indol-3-yl)-2,3,4, 11-tetrahydro-1H-pyrido [2,1-b]quinazoline] | – | – | – | – | – | – | – | 8.98 ± 0.32 | 12.6 ± 0.23 | 10.9 ± 0.4 | 9.31 ± 0.32 | 7.25 ± 0.38 | 9.27 ± 0.54 | 5.79 ± 0.14 | 8.1 ± 0.1 | 7.81 ± 0.65 | 7.67 ± 0.22 | 4.4 ± 0.2 | 7.1 ± 0.19 | 180 to 182 | –
